According to patent US7109193B2, “Tricyclic diazepines tocolytic oxytocin receptor antagonists” (Wyeth, priority 2001, dated 2006):

Target: T1, human oxytocin receptor (Homo sapiens, UniProt P30559)
T1 construct: host or cells: CHO cells (pcDNA3.1 vector)
T1 sequence (P30559 1-389): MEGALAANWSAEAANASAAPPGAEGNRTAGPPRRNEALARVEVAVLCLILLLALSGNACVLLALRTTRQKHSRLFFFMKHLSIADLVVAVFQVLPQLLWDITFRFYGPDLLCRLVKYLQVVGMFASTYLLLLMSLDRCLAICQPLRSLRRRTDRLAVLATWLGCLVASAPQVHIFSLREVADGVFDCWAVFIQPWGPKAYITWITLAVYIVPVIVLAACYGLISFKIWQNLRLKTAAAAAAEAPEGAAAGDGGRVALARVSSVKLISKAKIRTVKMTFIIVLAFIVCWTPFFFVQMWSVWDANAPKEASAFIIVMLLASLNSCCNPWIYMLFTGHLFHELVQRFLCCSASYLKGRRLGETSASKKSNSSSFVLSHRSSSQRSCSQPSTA
Assay: Oxytocin binding in Chinese Hamster Ovary cell membranes expressing human oxytocin receptors
Details: 100 nM, CHO cell membranes, [3H]oxytocin, values without parentheses, read-out: OT % inhibition @ 100% nM

inhibition at 0.1 µM | Structure (SMILES)
95% | Cc1ccccc1-c1ccc(C(=O)N2Cc3ccc(C(=O)N4CCN(C)CC4)n3Cc3ccccc32)cc1C [Example 50, {10-[(2,2′-Dimethyl[1,1′-biphenyl]-4-yl)carbonyl]-10,11-dihydro-5H-pyrrolo[2,1-c][1,4]benzodiazepin-3-yl}(4-methyl-1-piperazinyl)methanone]
87% | COc1cc(C(=O)N2Cc3ccc(C(=O)N4CCCN(C)CC4)n3Cc3ccccc32)ccc1-c1ccccc1C [Example 66, {10-[(2-Methoxy-2′-methyl[1,1′-biphenyl]-4-yl)carbonyl]-10,11-dihydro-5H-pyrrolo[2,1-c][1,4]benzodiazepin-3-yl}(4-methyl-1,4-diazepan-1-yl)methanone]
67% | COc1cc(C(=O)N2Cc3ccc(C(=O)N4CCN(C)CC4)n3Cc3ccccc32)ccc1-c1cccc2ccccc12 [Example 55, {10-[3-Methoxy-4-(1-naphthyl)benzoyl]-10,11-dihydro-5H-pyrrolo[2,1-c][1,4]benzodiazepin-3-yl}(4-methyl-1-piperazinyl)methanone]
17% | CC(C)N1CCN(C(=O)c2ccc3n2Cc2ccccc2N(C(=O)c2ccc(-c4cccc5ccccc45)cc2Cl)C3)CC1 [Example 243, {10-[2-Chloro-4-(1-naphthyl)benzoyl]-10,11-dihydro-5H-pyrrolo[2,1-c][1,4]benzodiazepin-3-yl}(4-isopropyl-1-piperazinyl)methanone]
66% | COc1ccccc1-c1ccc(C(=O)N2Cc3ccc(C(=O)N[C@@H](CCCCNC(=O)OC(C)(C)C)C(N)=O)n3Cc3ccccc32)cc1OC [Example 303, tert-Butyl (5S)-6-amino-5-[({10-[(2,2′-dimethoxy[1,1′-biphenyl]-4-yl)carbonyl]-10,11-dihydro-5H-pyrrolo[2,1-c][1,4]benzodiazepin-3-yl}carbonyl)amino]-6-oxohexylcarbamate]
65% | Cc1ccccc1-c1ccc(C(=O)N2Cc3ccc(C(=O)NCCCN(C)C)n3Cc3ccccc32)cc1 [Example 76, N-[3-(Dimethylamino)propyl]-10-[(2′-methyl[1,1′-biphenyl]-4-yl)carbonyl]-10,11-dihydro-5H-pyrrolo[2,1-c][1,4]benzodiazepine-3-carboxamide]
32% | C=CCN1CCN(C(=O)c2ccc3n2Cc2ccccc2N(C(=O)c2ccc(-n4c(C)ccc4C)c(OC)c2)C3)CC1 [Example 318, (4-Allyl-1-piperazinyl){10-[4-(2,5-dimethyl-1H-pyrrol-1-yl)-3-methoxybenzoyl]-10,11-dihydro-5H-pyrrolo[2,1-c][1,4]benzodiazepin-3-yl}methanone]
48% | Cc1cc(C(=O)N2Cc3cccn3Cc3ccccc32)cc(C)c1-n1c(C)ccc1C [Example 30, [4-(2,5-Dimethyl-1H-pyrrol-1-yl)-3,5-dimethyl-phenyl][10,11-dihydro-5H-pyrrolo[2,1-c][1,4]benzodiazepin-10-yl]methanone]
10% | COc1cc(C(=O)N2Cc3ccc(C(=O)NCCC4CCCN4C)n3Cc3ccccc32)ccc1-n1c(C)ccc1C (stereo not shown) [Example 315, 10-[4-(2,5-Dimethyl-1H-pyrrol-1-yl)-3-methoxybenzoyl]-N-[2-(1-methyl-2-pyrrolidinyl)ethyl]-10,11-dihydro-5H-pyrrolo[2,1-c][1,4]benzodiazepine-3-carboxamide]
72% | COc1cc(C(=O)N2Cc3ccc(C(=O)N(C)CCN(C)C)n3Cc3ccccc32)ccc1-n1c(C)ccc1C [Example 309, N-[2-(Dimethylamino)ethyl]-10-[4-(2,5-dimethyl-1H-pyrrol-1-yl)-3-methoxybenzoyl]-N-methyl-10,11-dihydro-5H-pyrrolo[2,1-c][1,4]benzodiazepine-3-carboxamide]
95% | COc1ccccc1-c1ccc(C(=O)N2Cc3ccc(C(=O)N[C@@H](Cc4c[nH]cn4)C(N)=O)n3Cc3ccccc32)cc1C [Example 288, N-[(1S)-2-Amino-1-(1H-imidazol-4-ylmethyl)-2-oxoethyl]-10-[(2′-methoxy-2-methyl[1,1′-biphenyl]4-yl)carbonyl]-10,11-dihydro-5H-pyrrolo[2,1-c][1,4]benzodiazepine-3-carboxamide]
75% | COc1cccc(-c2ccc(C(=O)N3Cc4ccc(C(=O)N5CCCN(C)CC5)n4Cc4ccccc43)cc2OC)c1 [Example 70, {10-[(2,3′-Dimethoxy[1,1′-biphenyl]-4-yl)carbonyl]-10,11-dihydro-5H-pyrrolo[2,1-c][1,4]benzodiazepin-3-yl}(4-methyl-1,4-diazepan-1-yl)methanone]
24% | CN1CCN(C(=O)c2ccc3n2Cc2ccccc2N(C(=O)c2ccc(-c4cccc5ccccc45)cc2Cl)C3)CC1 [Example 58, {10-[2-Chloro-4-(1-naphthyl)benzoyl]-10,11-dihydro-5H-pyrrolo[2,1-c][1,4]benzodiazepin-3-yl}(4-methyl-1-piperazinyl)methanone]
22% | COc1cc(C(=O)N2Cc3ccc(C(=O)N4CCN(C(C)C)CC4)n3Cc3ccccc32)ccc1-n1c(C)ccc1C [Example 319, {10-[4-(2,5-Dimethyl-1H-pyrrol-1-yl)-3-methoxybenzoyl]-10,11-dihydro-5H-pyrrolo[2,1-c][1,4]benzodiazepin-3-yl}(4-isopropyl-1-piperazinyl)methanone]
18% | Cc1ccccc1-c1ccc(C(=O)N2Cc3ccc(C(=O)N4CCN(CCCN(C)C)CC4)n3Cc3ccccc32)cc1 [Example 249, {4-[3-(Dimethylamino)propyl]-1-piperazinyl}{10-[(2′-methyl[1,1′-biphenyl]-4-yl)carbonyl]-10,11-dihydro-5H-pyrrolo[2,1-c][1,4]benzodiazepin-3-yl}methanone]
80% | COc1cccc(-c2ccc(C(=O)N3Cc4ccc(C(=O)N5CCN(CCCN(C)C)CC5)n4Cc4ccccc43)cc2OC)c1 [Example 255, {10-[(2,3′-Dimethoxy[1,1′-biphenyl]-4-yl)carbonyl]-10,11-dihydro-5H-pyrrolo[2,1-c][1,4]benzodiazepin-3-yl}{4-[3-(dimethylamino)propyl]-1-piperazinyl}methanone]
88% | COc1cccc(-c2cc(OC)c(C(=O)N3Cc4ccc(C(=O)N[C@@H](Cc5c[nH]cn5)C(N)=O)n4Cc4ccccc43)cc2Cl)c1 [Example 287, N-[(1S)-2-Amino-1-(1H-imidazol-4-ylmethyl)-2-oxoethyl]-10-[(6-chloro-3,3′-dimethoxy[1,1′-biphenyl]-4-yl)carbonyl]-10,11-dihydro-5H-pyrrolo[2,1-c][1,4]benzodiazepine-3-carboxamide]
74% | COc1cccc(-c2ccc(C(=O)N3Cc4ccc(C(=O)N5CCCN(C)CC5)n4Cc4ccccc43)cc2C)c1 [Example 64, {10-[(3′-Methoxy-2-methyl[1,1′-biphenyl]-4-yl)carbonyl]-10,11-dihydro-5H-pyrrolo[2,1-c][1,4]benzodiazepin-3-yl}(4-methyl-1,4-diazepan-1-yl)methanone]
93% | COc1ccccc1-c1ccc(C(=O)N2Cc3ccc(C(=O)N[C@@H](Cc4c[nH]cn4)C(N)=O)n3Cc3ccccc32)cc1 [Example 285, N-[(1S)-2-Amino-1-(1H-imidazol-4-ylmethyl)-2-oxoethyl]-10-[(2′-methoxy[1,1′-biphenyl]-4-yl)carbonyl]-10,11-dihydro-5H-pyrrolo[2,1-c][1,4]benzodiazepine-3-carboxamide]
19% | COc1cc(C(=O)N2Cc3ccc(C(=O)NCCN4CCCCC4)n3Cc3ccccc32)ccc1-n1c(C)ccc1C [Example 314, 10-[4-(2,5-Dimethyl-1H-pyrrol-1-yl)-3-methoxybenzoyl]-N-[2-(1-piperidinyl)ethyl]-10,11-dihydro-5H-pyrrolo[2,1-c][1,4]benzodiazepine-3-carboxamide]
72% | COc1cccc(-c2cc(OC)c(C(=O)N3Cc4ccc(C(=O)N5CCN(CCCN(C)C)CC5)n4Cc4ccccc43)cc2Cl)c1 [Example 252, {10-[(6-Chloro-3,3′-dimethoxy[1,1′-biphenyl]-4-yl)carbonyl]-10,11-dihydro-5H-pyrrolo[2,1-c][1,4]benzodiazepin-3-yl}{4-[3-(dimethylamino)propyl]-1-piperazinyl}methanone]
71% | COc1ccccc1-c1ccc(C(=O)N2Cc3ccc(C(=O)N4CCCN(C)CC4)n3Cc3ccccc32)cc1OC [Example 69, {10-[(2,2′-Dimethoxy[1,1′-biphenyl]-4-yl)carbonyl]-10,11-dihydro-5H-pyrrolo[2,1-c][1,4]benzodiazepin-3-yl}(4-methyl-1,4-diazepan-1-yl)methanone]
92% | COc1ccccc1-c1ccc(C(=O)N2Cc3ccc(C(=O)N4CCN(C)CC4)n3Cc3ccccc32)cc1C [Example 49, {10-[(2′-Methoxy-2-methyl[1,1′-biphenyl]-4-yl)carbonyl]-10,11-dihydro-5H-pyrrolo[2,1-c][1,4]benzodiazepin-3-yl}(4-methyl-1-piperazinyl)methanone]
54% | Cc1cc(C(=O)N2Cc3ccc(C(=O)n4ccnc4)n3Cc3ccccc32)ccc1-c1ccccc1C(F)(F)F [Example 294, 1H-Imidazol-1-yl(10-{[2-methyl-2′-(trifluoromethyl)[1,1′-biphenyl]-4-yl]carbonyl}-10,11-dihydro-5H-pyrrolo[2,1-c][1,4]benzodiazepin-3-yl)methanone]

Structure (SMILES) | inhibition at 0.1 µM
Cc1cc(C(=O)N2Cc3ccc(C(=O)N[C@H]4CN5CCC4CC5)n3Cc3ccccc32)ccc1-c1ccccc1C(F)(F)F [Example 301, N-[(3R)-1-Azabicyclo[2.2.2]oct-3-yl]-10-{[2-methyl-2′-(trifluoromethyl)[1,1′-biphenyl]-4-yl]carbonyl}-10,11-dihydro-5H-pyrrolo[2,1-c][1,4]benzodiazepine-3-carboxamide] | 82%
